This is an account of results in PubChem BioAssay (NCI).

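Values below derive from 48-hour exposures of cells grown in 96-well plates, with endpoints linearly interpolated between the two concentrations bracketing the appropriate inhibition level. The concentration for full growth arrest is given as TGI.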

As a reminder, the TGI is the concentration at which net growth stops. Read a low TGI as greater sensitivity of the cells.

Test systems include HOP-62 NSCLC; LOX IMVI melanoma; UACC-257 melanoma; SNB-75 CNS; UO-31 renal; RPMI-8226 leukemia; SF-539 CNS; SK-OV-3 ovarian; A498 renal; OVCAR-8 ovarian; CAKI-1 renal; HCT-116 colon; NCI/ADR-RES ovarian; EKVX NSCLC; BT-549 breast; HOP-92 NSCLC; A549 NSCLC; HCC-2998 colon; COLO 205 colon; T-47D breast.
Experiment in all cases: DTP human tumour cell line panel, 48 h

On to `CC(Cn1c2c(c3cc(O)ccc31)CCc1ccc(O)cc1-2)N(C)C` (configuration not stated), for which the TGI in the assay on HOP-62 NSCLC was 31 µM; in the assay with LOX IMVI melanoma, 81 µM; with UACC-257 melanoma, 44.6 µM; in the assay on SNB-75 CNS it was 51.2 µM; with UO-31 renal, 28.3 µM; with RPMI-8226 leukemia it was greater than 100 µM. Moreover, the TGI was 32.1 µM in the assay on SF-539 CNS; 77 µM with SK-OV-3 ovarian; 53.7 µM in the assay with A498 renal; 33.2 µM with OVCAR-8 ovarian; 52.8 µM in the assay with CAKI-1 renal; greater than 100 µM in the assay with HCT-116 colon. Moreover, the results for the TGI in the assay on NCI/ADR-RES ovarian, with EKVX NSCLC and in the assay on BT-549 breast were 41.9 µM, 52.9 µM and 36.8 µM, respectively.
`CO/C(=N\N=C\c1ccc(Cl)c(Cl)c1)c1ccncc1`: the TGI with HOP-62 NSCLC, in the assay with HOP-92 NSCLC, in the assay on LOX IMVI melanoma, with A549 NSCLC, with SNB-75 CNS and in the assay on UO-31 renal was greater than 10 µM in each case. Further, the TGI in the assay with RPMI-8226 leukemia, in the assay with SF-539 CNS, in the assay with SK-OV-3 ovarian, in the assay with OVCAR-8 ovarian, in the assay on CAKI-1 renal and with HCT-116 colon was greater than 10 µM throughout. The total growth inhibition concentration (TGI) in the assay on NCI/ADR-RES ovarian, in the assay with HCC-2998 colon, in the assay with COLO 205 colon and in the assay on T-47D breast was greater than 10 µM each time.
With `O=[N+]([O-])c1ccc(-c2nn3c(C45CC6CC(CC(C6)C4)C5)nnc3s2)c(Cl)c1`, the TGI in the assay with HOP-62 NSCLC, in the assay with HOP-92 NSCLC, in the assay on LOX IMVI melanoma, in the assay on A549 NSCLC, in the assay with SNB-75 CNS and in the assay with UO-31 renal was greater than 100 µM throughout. Also, the TGI in the assay on RPMI-8226 leukemia, in the assay with SF-539 CNS, with SK-OV-3 ovarian, with A498 renal, with OVCAR-8 ovarian and in the assay on CAKI-1 renal was greater than 100 µM throughout. Besides, the TGI with HCT-116 colon, in the assay with NCI/ADR-RES ovarian, in the assay with EKVX NSCLC, with HCC-2998 colon, in the assay with COLO 205 colon and with T-47D breast was greater than 100 µM in each case.
With `Cc1c(/C=N/NC(=S)N2CCCCC2)c(=O)n(-c2ccccc2)n1C`, the TGI in the assay on HOP-62 NSCLC, in the assay on HOP-92 NSCLC, in the assay with LOX IMVI melanoma, with A549 NSCLC, with UACC-257 melanoma and in the assay on SNB-75 CNS was greater than 100 µM in each case. Further, the TGI with UO-31 renal, in the assay with RPMI-8226 leukemia, in the assay with SF-539 CNS, in the assay with SK-OV-3 ovarian, in the assay on A498 renal and in the assay on OVCAR-8 ovarian was greater than 100 µM each time. Further, the TGI in the assay on CAKI-1 renal, in the assay with HCT-116 colon, in the assay with NCI/ADR-RES ovarian, in the assay on EKVX NSCLC, in the assay on HCC-2998 colon and in the assay with COLO 205 colon was greater than 100 µM each time. Also, the TGI in the assay with BT-549 breast is greater than 100 µM.
Turning to `O=C(NCCN1CCCCC1)c1cccc(I)c1`, the TGI in the assay with HOP-92 NSCLC, in the assay on LOX IMVI melanoma, in the assay with A549 NSCLC, in the assay with SNB-75 CNS, in the assay with UO-31 renal and in the assay with RPMI-8226 leukemia was greater than 100 µM each time. Besides, the TGI with SF-539 CNS, with SK-OV-3 ovarian, in the assay with A498 renal, with OVCAR-8 ovarian, in the assay on CAKI-1 renal and in the assay on NCI/ADR-RES ovarian was greater than 100 µM throughout. The TGI with EKVX NSCLC, with HCC-2998 colon and in the assay on BT-549 breast was greater than 100 µM throughout.
For the molecule `COC(=O)C(=O)C(C(=O)C(=O)Nc1ccc(C)cc1C)c1nc2ccc(Cl)cc2[nH]c1=O` (configuration not stated), the TGI in the assay with HOP-62 NSCLC, in the assay with HOP-92 NSCLC, in the assay on LOX IMVI melanoma, in the assay with A549 NSCLC, with UACC-257 melanoma and in the assay with SNB-75 CNS was greater than 100 µM throughout. In addition, the TGI with UO-31 renal, in the assay with SF-539 CNS, in the assay with SK-OV-3 ovarian, in the assay on OVCAR-8 ovarian, in the assay with CAKI-1 renal and in the assay with HCT-116 colon was greater than 100 µM each time. Further, the TGI in the assay on NCI/ADR-RES ovarian, in the assay with EKVX NSCLC, in the assay with HCC-2998 colon, in the assay on COLO 205 colon and with BT-549 breast was greater than 100 µM each time.
As for `O=C1OC([C@H](O)c2cccnc2)c2ccccc21` (some centres not stated), the TGI with HOP-62 NSCLC, in the assay on HOP-92 NSCLC, in the assay on LOX IMVI melanoma, in the assay on A549 NSCLC, in the assay on UACC-257 melanoma and with SNB-75 CNS was greater than 10 µM throughout. For the same molecule, the TGI in the assay with UO-31 renal, in the assay on RPMI-8226 leukemia, in the assay on SF-539 CNS, in the assay with SK-OV-3 ovarian, in the assay on OVCAR-8 ovarian and in the assay on CAKI-1 renal was greater than 10 µM throughout. Further, the TGI in the assay on HCT-116 colon, with NCI/ADR-RES ovarian, in the assay with EKVX NSCLC, in the assay on HCC-2998 colon, in the assay with COLO 205 colon and with T-47D breast was greater than 10 µM throughout.
With `COc1ccc(-c2nc(-c3cnccn3)n(C3OC(CO)C(O)C3O)n2)cc1` (configuration not stated), the TGI in the assay on HOP-92 NSCLC, with LOX IMVI melanoma, with A549 NSCLC, with UACC-257 melanoma, with SNB-75 CNS and in the assay on UO-31 renal was greater than 10 µM in each case. Further, the TGI with SF-539 CNS, in the assay with SK-OV-3 ovarian, with OVCAR-8 ovarian, in the assay on NCI/ADR-RES ovarian, in the assay with EKVX NSCLC and with HCC-2998 colon was greater than 10 µM in each case. The molecule further gave a TGI with BT-549 breast greater than 10 µM.
Take `CCOC(=O)C(=CNc1ccc(F)c(F)c1)C(=O)OCC`: the TGI with HOP-62 NSCLC, in the assay on HOP-92 NSCLC, in the assay with LOX IMVI melanoma, in the assay on A549 NSCLC, in the assay with UACC-257 melanoma and in the assay on SNB-75 CNS was greater than 100 µM in each case. Further, the TGI in the assay on UO-31 renal, in the assay with RPMI-8226 leukemia, with SF-539 CNS, in the assay on SK-OV-3 ovarian, in the assay with A498 renal and in the assay on OVCAR-8 ovarian was greater than 100 µM each time. The TGI in the assay with CAKI-1 renal, with HCT-116 colon, in the assay with NCI/ADR-RES ovarian, in the assay on EKVX NSCLC, in the assay on HCC-2998 colon and in the assay with COLO 205 colon was greater than 100 µM each time. Moreover, the TGI with T-47D breast is greater than 100 µM.
In the case of `COc1cc(OC)c2c(=O)c3cccc(C)c3n(C)c2c1`, the TGI in the assay with HOP-62 NSCLC, with HOP-92 NSCLC, with LOX IMVI melanoma, with A549 NSCLC, in the assay on UACC-257 melanoma and in the assay with SNB-75 CNS was greater than 100 µM throughout. Besides, the TGI is 58.9 µM in the assay with RPMI-8226 leukemia; greater than 100 µM in the assay with SF-539 CNS; greater than 100 µM in the assay with SK-OV-3 ovarian; greater than 100 µM in the assay on A498 renal; greater than 100 µM with OVCAR-8 ovarian; greater than 100 µM in the assay with CAKI-1 renal. Also, the TGI in the assay on HCT-116 colon, with NCI/ADR-RES ovarian, in the assay with EKVX NSCLC, in the assay with HCC-2998 colon, with COLO 205 colon and with BT-549 breast was greater than 100 µM each time.
With `O=[N+]([O-])c1cccc2nccc(NCCN3CCOCC3)c12`, the total growth inhibition concentration (TGI) was 35.6 µM in the assay with HOP-62 NSCLC; greater than 100 µM in the assay on HOP-92 NSCLC; 46.6 µM with LOX IMVI melanoma; 43.3 µM in the assay on A549 NSCLC; 29 µM in the assay with UACC-257 melanoma; 47.2 µM with SNB-75 CNS. Also, the TGI in the assay with UO-31 renal is greater than 100 µM; in the assay with RPMI-8226 leukemia it was greater than 63.5 µM; in the assay on SF-539 CNS, 57.2 µM; in the assay with SK-OV-3 ovarian, greater than 100 µM; in the assay with A498 renal it was 29.3 µM; with OVCAR-8 ovarian, greater than 54.2 µM. Further, the TGI is 20.2 µM in the assay on CAKI-1 renal; 30.5 µM in the assay on HCT-116 colon; greater than 100 µM in the assay with NCI/ADR-RES ovarian; greater than 53.8 µM in the assay on EKVX NSCLC; 26.4 µM in the assay on HCC-2998 colon; 49 µM in the assay with COLO 205 colon. Further, in the assay on T-47D breast, the TGI was greater than 100 µM.
Turning to `CCCCCCCCCCCCOCC1(COCCCCCCCCCCCC)COC(c2ccc(N)cc2)OC1`, the total growth inhibition concentration (TGI) in the assay on HOP-62 NSCLC, with LOX IMVI melanoma, with A549 NSCLC, with UACC-257 melanoma, in the assay with SNB-75 CNS and in the assay with UO-31 renal was greater than 100 µM throughout. For the same molecule, the TGI in the assay on RPMI-8226 leukemia, in the assay with SF-539 CNS, with SK-OV-3 ovarian, with A498 renal, in the assay with OVCAR-8 ovarian and in the assay on CAKI-1 renal was greater than 100 µM throughout. Moreover, the TGI in the assay with HCT-116 colon, in the assay on NCI/ADR-RES ovarian, with EKVX NSCLC, in the assay with HCC-2998 colon and in the assay with T-47D breast was greater than 100 µM each time.
Consider `O=C1NCN(c2ccccc2)C12CCN(CC1COc3ccccc3O1)CC2` (configuration not stated), for which the TGI in the assay on HOP-62 NSCLC was 52.8 µM; in the assay on LOX IMVI melanoma, greater than 100 µM; in the assay with A549 NSCLC it was greater than 100 µM; with UACC-257 melanoma, greater than 100 µM; with SNB-75 CNS it was 71.4 µM; in the assay on UO-31 renal it was greater than 100 µM. The TGI with RPMI-8226 leukemia, in the assay with SF-539 CNS, with SK-OV-3 ovarian, with A498 renal, in the assay with OVCAR-8 ovarian and in the assay with CAKI-1 renal was greater than 100 µM in each case. Besides, the TGI in the assay with HCT-116 colon is greater than 100 µM; in the assay on NCI/ADR-RES ovarian, greater than 100 µM; in the assay on EKVX NSCLC, 98.2 µM; in the assay with HCC-2998 colon, greater than 100 µM; in the assay on COLO 205 colon, greater than 100 µM; in the assay on T-47D breast it was greater than 100 µM.
